Experimental data taken from patent US4382923A, “Tetrapeptide acylhydrazides, their production and use” (Takeda Chemical Industries, Ltd., priority 1980, dated 1983).

Tests used:
Slc:ICR mice = test: Phenylquinone writhing method; type: in vivo; settings: oral route; reference
Method: Phenylquinone writhing method
The compound (I) of the present invention was administered orally or subcutaneously to Slc:ICR mice weighing 18-20 g. According to the method of E. Siegmund, R. Cadmus and G. Lu [Proc. Soc.Exp.Biol, Med. 95, 729 (1957)], 0.02% phenylquinone in 5% ethanol saline was injected intraperitoneally in a dose of 0.1 ml/10 g body weight 30 min. after administration of the compound (I). The frequency of abdominal writhing was then counted for 20 min. Analgesic effect was indicated by comparing test group with control group.

[1] = direct intracerebral administration; cited from earlier work
[2] = intravenous route; cited from earlier work

For `CN1CC[C@]23c4c5ccc(O)c4O[C@H]2[C@@H](O)C=C[C@H]3[C@H]1C5` [morphine], the “effective dose, analgesic activity (abdominal writhing)” value (Slc:ICR mice) was 2.5 mg/kg.
For H-Tyr-Gly-Gly-Phe-Leu-OH, the morphinomimetic activity [1] is listed as “show morphinomimetic activity” and the analgesic effect [2] is listed as “do not produce analgesic effects”.
In the case of “H-Tyr-Gly-Gly-Phe-Met-OH (H-YGGFM-OH) [enkephalin, pentapeptide isolated from the pig brain]”, the morphinomimetic activity [1] is listed as “show morphinomimetic activity” and the analgesic effect [2] is listed as “do not produce analgesic effects”.
In the case of “β-endorphin (YGGFMTSEKSQTPLVTLFKNAIIKNAYKKGE; Beta-endorphin; UniProt P01189 237-267, looked up) [polypeptide consisting of 31 amino acid moieties, peptide-type analgesic]”, the analgesic effect [2] is listed as “overt analgesic action”.
